How the values were obtained:
Assay type in all cases: cell-based
[1] = tested on: Human Gastric Cancer Cell Line (BGC); assay: Tumor cell proliferation assay (MTT), BGC; settings: for inhibition at 10 µM: concentration of 10^−5 mol/L, preliminary screening, 72 hours, read-out: Inhibition rate % BGC; for IC50: secondary screening, 48 hours
[2] = tested on: Human Colon Cancer Cell Line (HT-29); assay: Tumor cell proliferation assay (MTT), HT29; settings: for inhibition at 10 µM: concentration of 10^−5 mol/L, preliminary screening, 72 hours, read-out: Inhibition rate % HT29; for IC50: secondary screening, 48 hours
[3] = tested on: Human Ovarian Cancer Cell Line (SK-OV-3); assay: Tumor cell proliferation assay (MTT), SK-OV-3; settings: for inhibition at 10 µM: concentration of 10^−5 mol/L, preliminary screening, 72 hours, read-out: Inhibition rate % SK-OV-3; for IC50: secondary screening, 48 hours

Compound	IC50 [1] [nM]	IC50 [2] [nM]	IC50 [3] [nM]	inhibition at 10 µM [1] [%]	inhibition at 10 µM [2] [%]	inhibition at 10 µM [3] [%]
Cc1[nH]c2c(c1C(=O)NCCO)CCC/C2=C1/C(=O)Nc2ccccc21 [I-8, N-(2-hydroxyethyl)-2-methyl-7-[1,2-dihydro-2-oxo-3H-indol-(Z)-3-ylidene]-4,5,6,7-tetrahydro-1H-indole-3-carboxamide]	–	–	–	47	84.8	38.1
Cc1[nH]c2c(c1C(=O)NCC(O)CN1CCOCC1)CCC/C2=C1/C(=O)Nc2ccc(F)cc21 (centres unmarked) [I-68, N-(2-hydroxy-3-morpholinopropyl)-2-methyl-7-[1,2-dihydro-5-fluoro-2-oxo-3H-indol-(Z)-3-ylidene]-4,5,6,7-tetrahydro-1H-indole-3-carboxamide]	7590	–	–	55.4	31.3	11.1
CCN(CC)CC(O)CNC(=O)c1c(C)[nH]c2c1CCC/C2=C1/C(=O)Nc2ccccc21 (centres unmarked) [I-63, N-(3-(diethylamino)-2-hydroxypropyl)-2-methyl-7-[1,2-dihydro-2-oxo-3H-indol-(Z)-3-ylidene]-4,5,6,7-tetrahydro-1H-indole-3-carboxamide]	1850	1020	1350	80.8	92.7	94
CCN(CC)CCNC(=O)c1c(C)[nH]c2c1CCC/C2=C1/C(=O)Nc2ccc(F)cc21 [I-2, N-(2-(diethylamino)ethyl)-2-methyl-7-[1,2-dihydro-5-fluoro-2-oxo-3H-indol-(Z)-3-ylidene]-4,5,6,7-tetrahydro-1H-indole-3-carboxamide]	6110	1200	–	71	97.4	92.2
CCN(CC)CCNC(=O)c1c(C)[nH]c2c1CCC/C2=C1/C(=O)Nc2ccc(Cl)cc21 [I-3, N-(2-(diethylamino)ethyl)-2-methyl-7-[1,2-dihydro-5-chloro-2-oxo-3H-indol-(Z)-3-ylidene]-4,5,6,7-tetrahydro-1H-indole-3-carboxamide]	2030	6480	2990	78.1	65.1	86.7
CCN(CC)CCNC(=O)c1c(C)[nH]c2c1CCC/C2=C1/C(=O)Nc2ccc(C)cc21 [I-4, N-(2-(diethylamino)ethyl)-2-methyl-7-[1,2-dihydro-5-methyl-2-oxo-3H-indol-(Z)-3-ylidene]-4,5,6,7-tetrahydro-1H-indole-3-carboxamide]	–	–	5270	–	89.9	57.1
Cc1[nH]c2c(c1C(=O)NCCO)CCC/C2=C1/C(=O)Nc2ccc(F)cc21 [I-9, N-(2-hydroxyethyl)-2-methyl-7-[1,2-dihydro-5-fluoro-2-oxo-3H-indol-(Z)-3-ylidene]-4,5,6,7-tetrahydro-1H-indole-3-carboxamide]	–	–	–	42.1	66.7	–
Cc1[nH]c2c(c1C(=O)N1CCN(C)CC1)CCC/C2=C1/C(=O)Nc2ccc(F)cc21 [I-14, 2-methyl-3-(4-methylpiperazine-1-carbonyl)-7-[1,2-dihydro-5-fluoro-2-oxo-3H-indol-(Z)-3-ylidene]-4,5,6,7-tetrahydro-1H-indole]	–	–	–	39.4	43.3	–
CCN(CC)CCNC(=O)c1c(C)[nH]c2c1CCC/C2=C1/C(=O)Nc2ccccc21 [I-5, N-(2-(diethylamino)ethyl)-2-methyl-7-[1,2-dihydro-2-oxo-3H-indol-(Z)-3-ylidene]-4,5,6,7-tetrahydro-1H-indole-3-carboxamide]	6730	540	–	64	91.5	77.5
Cc1[nH]c2c(c1C(=O)NCCCN(C)C)CCC/C2=C1/C(=O)Nc2ccc(Cl)cc21 [I-7, N-(3-(dimethylamino)propyl)-2-methyl-7-[1,2-dihydro-5-chloro-2-oxo-3H-indol-(Z)-3-ylidene]-4,5,6,7-tetrahydro-1H-indole-3-carboxamide]	2760	3060	3040	75.9	78.4	63.3
Cc1[nH]c2c(c1C(=O)NCCN(C)C)CCC/C2=C1/C(=O)Nc2ccc(F)cc21 [I-6, N-(2-(dimethylamino)ethyl)-2-methyl-7-[1,2-dihydro-5-fluoro-2-oxo-3H-indol-(Z)-3-ylidene]-4,5,6,7-tetrahydro-1H-indole-3-carboxamide]	–	4380	–	32.3	61.9	32.2

Further lines, with some results ahead:

IC50 [1] [nM]	IC50 [2] [nM]	IC50 [3] [nM]	Compound	inhibition at 10 µM [1] [%]	inhibition at 10 µM [2] [%]	inhibition at 10 µM [3] [%]
3450	8380	6400	Cc1[nH]c2c(c1C(=O)NCC(O)CN1CCN(C)CC1)CCC/C2=C1/C(=O)Nc2ccc(F)cc21 (centres unmarked) [I-77, N-[2-hydroxy-3-(4-methylpiperazin-1-yl)propyl]-2-methyl-7-[1,2-dihydro-5-fluoro-2-oxo-3H-indol-(Z)-3-ylidene]-4,5,6,7-tetrahydro-1H-indole-3-carboxamide]	84.2	74.4	77.3
1420	790	1540	Cc1[nH]c2c(c1C(=O)NCC(O)CN1CCCC1)CCC/C2=C1/C(=O)Nc2ccc(F)cc21 (centres unmarked) [I-71, N-(2-hydroxy-3-(pyrrolidin-1-yl)propyl)-2-methyl-7-[1,2-dihydro-5-fluoro-2-oxo-3H-indol-(Z)-3-ylidene]-4,5,6,7-tetrahydro-1H-indole-3-carboxamide]	82.3	95	91.7
1490	930	1140	Cc1[nH]c2c(c1C(=O)NCC(O)CN1CCCC1)CCC/C2=C1/C(=O)Nc2ccccc21 (centres unmarked) [I-70, N-(2-hydroxy-3-(pyrrolidin-1-yl)propyl)-2-methyl-7-[1,2-dihydro-2-oxo-3H-indol-(Z)-3-ylidene]-4,5,6,7-tetrahydro-1H-indole-3-carboxamide]	84.8	94.7	95.6
7950	420	–	Cc1[nH]c2c(c1C(=O)NCC(O)CN1CCCCC1)CCC/C2=C1/C(=O)Nc2ccc(F)cc21 (centres unmarked) [I-74, N-(2-hydroxy-3-(piperidin-1-yl)propyl)-2-methyl-7-[1,2-dihydro-5-fluoro-2-oxo-3H-indol-(Z)-3-ylidene]-4,5,6,7-tetrahydro-1H-indole-3-carboxamide]	60.2	92.2	88.2
10200	640	–	Cc1[nH]c2c(c1C(=O)NCC(O)CN1CCCCC1)CCC/C2=C1/C(=O)Nc2ccccc21 (centres unmarked) [I-73, N-(2-hydroxy-3-(piperidin-1-yl)propyl)-2-methyl-7-[1,2-dihydro-2-oxo-3H-indol-(Z)-3-ylidene]-4,5,6,7-tetrahydro-1H-indole-3-carboxamide]	48.8	95.6	71.9
